Test results from ChEMBL document CHEMBL5352419, “Design, synthesis, and biological evaluation of tetrahydroquinoline amphiphiles as membrane-targeting antimicrobials against pathogenic bacteria and fungi” (Eur J Med Chem, 2022).
≈ marks a conversion by molar mass, not a printed value.

Tests used:
Assay type in all cases: functional
[1] = system: Staphylococcus aureus; assay: Antimicrobial activity against Staphylococcus aureus ATCC29213 assessed as bacterial growth inhibition incubated for 24 hrs by Muller Hinton broth based dilution assay
[2] = system: Staphylococcus aureus; assay: Antimicrobial activity against methicillin-resistant Staphylococcus aureus N315 assessed as bacterial growth inhibition incubated for 24 hrs by Muller Hinton broth based dilution assay
[3] = system: Staphylococcus aureus; assay: Antimicrobial activity against methicillin-resistant Staphylococcus aureus NCTC10442 assessed as bacterial growth inhibition incubated for 24 hrs by Muller Hinton broth based dilution assay
[4] = system: Escherichia coli; assay: Antimicrobial activity against Escherichia coli ATCC25922 assessed as bacterial growth inhibition incubated for 24 hrs by Muller Hinton broth based dilution assay
[5] = system: Staphylococcus aureus; assay: Antibiofilm activity against Staphylococcus aureus ATCC29213 assessed as inhibition of biofilm formation at 0.39 ug/mL incubated for 24 hrs by crystal violet staining based analysis relative to control
[6] = system: Staphylococcus aureus; assay: Antibiofilm activity against Staphylococcus aureus ATCC29213 assessed as inhibition of biofilm formation at 0.78 ug/mL incubated for 24 hrs by crystal violet staining based analysis relative to control
[7] = system: Staphylococcus aureus; assay: Antibiofilm activity against Staphylococcus aureus ATCC29213 assessed as inhibition of biofilm formation at 6.25 ug/mL incubated for 24 hrs by crystal violet staining based analysis relative to control
[8] = system: Staphylococcus aureus; assay: Disruption of preformed biofilm in Staphylococcus aureus ATCC29213 assessed as residual preformed biofilm at 0.39 ug/mL incubated for 24 hrs by crystal violet staining based analysis relative to control; conditions: dose 0.39 µg/ml
[9] = system: Staphylococcus aureus; assay: Disruption of preformed biofilm in Staphylococcus aureus ATCC29213 assessed as residual preformed biofilm at 0.78 ug/mL incubated for 24 hrs by crystal violet staining based analysis relative to control; conditions: dose 0.78 µg/ml
[10] = system: Staphylococcus aureus; assay: Disruption of preformed biofilm in Staphylococcus aureus ATCC29213 assessed as residual preformed biofilm at 3.125 ug/mL incubated for 24 hrs by crystal violet staining based analysis relative to control; conditions: dose 3.125 µg/ml
[11] = system: Staphylococcus aureus; assay: Disruption of preformed biofilm in Staphylococcus aureus ATCC29213 assessed as residual preformed biofilm at 6.25 ug/mL incubated for 24 hrs by crystal violet staining based analysis relative to control; conditions: dose 6.25 µg/ml
[12] = system: Staphylococcus aureus; assay: Disruption of preformed biofilm in Staphylococcus aureus ATCC29213 assessed as residual preformed biofilm at 12.5 ug/mL incubated for 24 hrs by crystal violet staining based analysis relative to control; conditions: dose 12.5 µg/ml
[13] = system: Pseudomonas aeruginosa; assay: In vivo antibacterial activity against Pseudomonas aeruginosa ATCC9027 infected in keratitis C57BL/6 mouse model assessed as log reduction in bacterial load at 0.3 % administered topically 4 times per day for 3 days; conditions: time 3 day

Row | SMILES | MIC [1] | MIC [2] | MIC [3] | MIC [4] | inhibition at 0.39 µg/mL [5] | inhibition at 0.78 µg/mL [6] | inhibition at 6.25 µg/mL [7] | Activity [8] | Activity [9] | Activity [10] | Activity [11] | Activity [12] | log(activity) [13]
1 | CN[C@H](CC(C)C)C(=O)N[C@H]1C(=O)N[C@@H](CC(N)=O)C(=O)N[C@H]2C(=O)N[C@H]3C(=O)N[C@H](C(=O)N[C@H](C(=O)O)c4cc(O)cc(O)c4-c4cc3ccc4O)[C@H](O)c3ccc(c(Cl)c3)Oc3cc2cc(c3O[C@@H]2O[C@H](CO)[C@@H](O)[C@H](O)[C@H]2O[C@H]2C[C@](C)(N)[C@H](O)[C@H](C)O2)Oc2ccc(cc2Cl)[C@H]1O [VANCOMYCIN] | 0.78 µg/mL (≈ 0.538 µM) | 1.56 µg/mL (≈ 1.08 µM) | 1.56 µg/mL (≈ 1.08 µM) | > 50 µg/mL | 3.73% | 30.3% | 99.6% | 98.16% | 91.12% | 49.44% | 10.69% | -0.81% | –
2 | COc1c(N2CCNC(C)C2)c(F)cc2c(=O)c(C(=O)O)cn(C3CC3)c12 (stereo not drawn) [GATIFLOXACIN] | – | – | – | – | – | – | – | – | – | – | – | – | 3.7
